Tests used:
Type in all cases: cell-based
Lactobacillus jensenii = experiment: Gram-stained smear of co-culture gel, Gram-positive rods (G+b); details: for Smear G^+b: cultivated 32 hours
Excerpt: (§1) 2.1 Experimental strains: one Lactococcus lactis strain and one Lactobacillus jensenii strain, both were clinical isolates.
(§2) The pH value was adjusted to 5.0.
(§3) 2.4 Experimental procedure: the test gel tubes containing different concentrations of antimicrobial agents, as shown in Tables 1 to 6 were inoculated with 100 microliters of Lactobacillus lactis suspension and 100 microliters of Lactobacillus jensenii suspension at the same time. The turbidities of both suspensions were 0.5 MCF. Then the tubes were cultivated at 37° C. and under 5 percent CO2 for 32 hours. Then the changes of the pH values of gels were tested. The gels were smeared, Gram stained, and microscopically examined for the morphology and quantity of bacteria.

[1] = test system: three strains of Staphylococcus aureus isolated from the vaginal secretion of patients with vaginitis; experiment: Growth in enrichment broth (turbidity after 24 hours), clinical strains
Excerpt: (§4) a. Experimental strains, three strains of Escherichia coli and three strains of Staphylococcus aureus, which were all isolated from the vaginal secretion of patients with vaginitis.
(§5) b. Enrichment broth, which contained 1 percent of yeast extract powder, 9 percent of sucrose, 0.025 percent of manganese sulfate (MnSO4.4H2O), 0.058 percent of magnesium sulfate (MgSO4.7H2O), and 0.9 percent of lactic acid, the pH value of the broth was adjusted to 4.8, and the enrichment broth was sterilized for later use;
(§6) (2). Experimental groups: the requirements for aseptic operation technique were strictly followed to prepare the sterile test tubes:
(§7) a. sodium benzoate group: each test tube contained 5 milliliters of enrichment broth, and was added in 0.05 percent (weight/volume) sodium benzoate;
(§8) b. 2-phenylethanol group: each test tube contained 5 milliliters of enrichment broth, and was added in 0.05 percent (weight/volume) of 2-phenylethanol;
(§9) c. sodium propionate group: each test tube contained 5 milliliters of enrichment broth, and was added in 0.25 percent (weight/volume) of sodium propionate;
(§10) d. “a group of the combinations of sodium benzoate and sodium propionate”: each test tube contained 5 milliliters of enrichment broth, and was added in 0.05 percent (weight/volume) of sodium benzoate and 0.25 percent (weight/volume) of sodium propionate;
(§11) e. “a group of the combinations of sodium benzoate and 2-phenylethanol”: each test tube contained 5 milliliters of enrichment broth, and was added in 0.05 percent (weight/volume) of sodium benzoate and 0.05 percent (weight/volume) of 2-phenylethanol;
(§12) f. “a group of the combinations of sodium propionate and 2-phenylethanol”: each test tube contained 5 milliliters of enrichment broth, and was added in 0.25 percent (weight/volume) of sodium propionate and 0.05 percent (weight/volume) of 2-phenylethanol;
(§13) g. “a group of the combinations of sodium benzoate, sodium propionate and 2-phenylethanol”: each test tube contained 5 milliliters of enrichment broth, and was added in 0.05 percent (weight/volume) of sodium benzoate, 0.25 percent (weight/volume) of sodium propionate, and 0.05 percent (weight/volume) of 2-phenylethanol;
(§14) h. positive control: one tube that contained 5 milliliters of enrichment broth without adding in any of the 2-phenylethanol, sodium benzoate, and sodium propionate, but inoculated the suspension of Escherichia coli or Staphylococcus aureus.
(§15) i. negative control: one tube that contained 5 milliliters of enrichment broth without adding in any of the 2-phenylethanol, sodium benzoate, and sodium propionate, and not inoculated the suspension of Escherichia coli or Staphylococcus aureus.
(§16) The requirements for aseptic operation technique were strictly followed to prepare the bacterial suspensions. The colonies of Escherichia coli and Staphylococcus aureus were diluted with physiological saline respectively to prepare bacterial suspension. The turbidities of the Escherichia coli suspension and the Staphylococcus aureus suspension were adjusted to 0.5 MCF (about 10^8 CFU/ml) by a turbidimeter. 1 milliliter of the 0.5 MCF bacterial suspensions were added into 9 milliliters of the enrichment broth respectively, so each bacterial solution was diluted for ten times to contain 10^7 CFU/ml of bacterial organisms.
(§17) The requirements for aseptic operation technique were strictly followed to take 100 microliters of the prepared bacterial suspensions respectively, and to add the bacterial suspensions into the aforesaid test tubes from a to h as well as positive control tube. No bacterial suspension was added into the negative control tube i.
(§18) The above tubes were cultured in a biochemical incubator at 37° C. for 24 hours, then turbidity changes of the test tube solutions were observed and recorded.
(§19) Remark: “+” means the growth of bacteria; “−” means no growth of bacteria.

Lactococcus lactis = experiment: Gram-stained smear of co-culture gel, Gram-positive cocci (G+c); details: for Smear G^+c: cultivated 32 hours
Excerpt: as §1, §2, §3

[2] = test system: three strains of Escherichia coli isolated from the vaginal secretion of patients with vaginitis; experiment: Growth in enrichment broth (turbidity after 24 hours), clinical strains
Excerpt: as §4, §5, §6, §7, §8, §9, §10, §11, §12, §13, §14, §15, §16, §17, §18, §19

[3] = 0.05 percent (weight/volume) in enrichment broth pH 4.8, 37° C. 24 hours
[4] = 0.25 percent (weight/volume) in enrichment broth pH 4.8, 37° C. 24 hours

SMILES: OCCc1ccccc1 [2-phenylethanol]
- Smear G^+b (Lactobacillus jensenii; 0.15 % in test gel): G^+b+
- Smear G^+b (Lactobacillus jensenii; 0.2 % in test gel): G^+b+
- Smear G^+b (Lactobacillus jensenii; 0.25 % in test gel): G^+b+
- Smear G^+b (Lactobacillus jensenii; 0.3 % in test gel): G^+b+
- Smear G^+b (Lactobacillus jensenii; 0.35 % in test gel): G^+b+++
- inhibition effect on the growth of Lactobacillus (Lactobacillus jensenii; 0.35 to 0.45 percent): weaker inhibition effect
- Smear G^+b (Lactobacillus jensenii; 0.4 % in test gel): G^+b++
- Smear G^+b (Lactobacillus jensenii; 0.45 % in test gel): G^+b++
- Smear G^+b (Lactobacillus jensenii; 0.5 % in test gel): G^+b+
- could inhibit the growth of Staphylococcus aureus (agent alone, words) [1, 3]: no one of the three antimicrobial agents
- Smear G^+c (Lactococcus lactis; 0.15 % in test gel): G^+c+++
- Smear G^+c (Lactococcus lactis; 0.2 % in test gel): G^+c+++
- Smear G^+c (Lactococcus lactis; 0.25 % in test gel): G^+c+++
- Smear G^+c (Lactococcus lactis; 0.3 % in test gel): G^+c+++
- Smear G^+c (Lactococcus lactis; 0.35 % in test gel): G^+c+~+
- inhibition effect on the growth of Lactococcus lactis (Lactococcus lactis; 0.35 to 0.45 percent): stronger inhibition effect
- Smear G^+c (Lactococcus lactis; 0.4 % in test gel): G^+c+
- could inhibit the growth of Escherichia coli (agent alone, words) [2, 3]: no one of the three antimicrobial agents

SMILES: CCC(=O)[O-].[Na+] [sodium propionate]
- Smear G^+b (Lactobacillus jensenii; 0.1 % in test gel): G^+b+
- Smear G^+b (Lactobacillus jensenii; 0.2 % in test gel): G^+b+
- Smear G^+b (Lactobacillus jensenii; 0.3 % in test gel): G^+b+
- Smear G^+b (Lactobacillus jensenii; 0.4 % in test gel): G^+b++
- inhibition effect on the growth of Lactobacillus (Lactobacillus jensenii; 0.4 to 0.6 percent): weaker inhibition effect
- Smear G^+b (Lactobacillus jensenii; 0.5 % in test gel): G^+b++
- Smear G^+b (Lactobacillus jensenii; 0.6 % in test gel): G^+b++
- Smear G^+b (Lactobacillus jensenii; 0.7 % in test gel): G^+b+
- could inhibit the growth of Staphylococcus aureus (agent alone, words) [1, 4]: no one of the three antimicrobial agents
- Smear G^+c (Lactococcus lactis; 0.1 % in test gel): G^+c+++
- Smear G^+c (Lactococcus lactis; 0.2 % in test gel): G^+c+++
- Smear G^+c (Lactococcus lactis; 0.3 % in test gel): G^+c+++
- Smear G^+c (Lactococcus lactis; 0.4 % in test gel): G^+c+
- inhibition effect on the growth of Lactococcus lactis (Lactococcus lactis; 0.4 to 0.6 percent): stronger inhibition effect
- Smear G^+c (Lactococcus lactis; 0.5 % in test gel): G^+c+
- could inhibit the growth of Escherichia coli (agent alone, words) [2, 4]: no one of the three antimicrobial agents
